Ends that are not written are not given here. Peptide text beside a SMILES is read from it. * marks the point of attachment. Biotin = O=C1N[C@H]2[C@H](CS[C@H]2CCCCC(=O)*)N1
Experiments:
C57BL/6 mice = experiment: Safety in immune-competent C57BL/6 mice; format: in vivo; settings: intraperitoneal, 10 and 30 mg/kg; for histological alterations in evaluated organs: 3 days post-injection
Protocol: Mice were dosed by intraperitoneal injection with 10 and 30 mg/kg of Disruptin, and brain, lung, liver, heart, kidneys, spleen, stomach, small intestine, mesenteric lymph nodes, cecum, colon, pancreas, ovaries, bone marrow, and eyes were evaluated 3 days post-injection.

UMSCC1 cells = experiment: Clonogenic cell survival assay, UMSCC1; format: cell-based, human
Protocol: (§1) Clonogenic assays were performed using standard techniques.^34 The fraction surviving each treatment was normalized to the survival of the control cells. Peptide cell survival curves were fitted using the equation SF=(C50)^m/[(C50)^m+C^m], where SF is the surviving fraction, C is the peptide concentration, C50 is the concentration of peptide that produces a 50% cell survival and m is the slope of the sigmoid curve.
(§2) We then assessed colonogenic survival in head and neck (UMSCC1, UMSCC10B, UMSCC74B), lung (A549, H1975, H3255), and HeLa cancer cells. Normal human esophageal squamous epithelial (Het1A) and lung fibroblast (MRC5) cell lines along with EGFR negative CHO cells were selected to study selectivity.

UMSCC1 xenografts [1] = experiment: Peptide internalization assay in UMSCC1 xenografts; format: in vivo; settings: 8 mg/kg, i.p., nude mice with UMSCC1 xenografts
Protocol: Delivery of the peptide to the UMSCC1 xenografts was assessed after injection of peptides (8 mg/kg, i.p.), 3 days later the tumors were removed, cryosections were immunostained for EGFR, and the internalized biotinylated peptide was visualized by Streptavidin Alexa Fluor […] reagent.
The UMSCC1 xenografts were cryopreserved in OCT (Electron Microscopy Sciences). Five μm sections were cut from tissues prepared on days 1 and 3 after peptide treatment. Sections were fixed in cold methanol for 20 min and then were blocked with 1% Bovine Serum Albumin (BSA). The sections were incubated overnight with anti-EGFR antibody (Santa Cruz). After washing, the sections were incubated with anti-rabbit Alexa Fluor 488 (Molecular Probes) and Streptavidin conjugated Alexa Fluor 594 (Molecular Probes). Coverslips were mounted with one drop of Prolong Gold anti-fade reagent with DAPI (4,6-diamidino-2-phenylindole; Molecular Probes) to visualize the nuclei. Fluorescence images were acquired using a DP70 camera fitted on an Olympus 1X-71 microscope.

UMSCC1 xenografts [2] = experiment: In vivo tumor growth study, UMSCC1 xenografts; parameters: species or system mice
Protocol: (a) To determine if EGFR level was affected in the UMSCC1 xenograft tumor, mice were injected with either DMSO, specific, or non-specific biotinylated peptide (8 mg/kg) intraperitoneally. Three weeks after the injection, tumors (white arrow) along with some adjacent normal tissue (yellow arrow) were harvested. Immunostaining was performed for EGFR and HSP90. HSP90 levels were not affected by either treatment either in tumor or in the adjacent skin tissue. EGFR expression was reduced in the tumor treated with specific peptide relative to normal adjacent skin cells. (b) The effect on tumor growth was also assessed after treatment with two injections separated by 3 days. Tumor volume was recorded every other day during this period, (c) Time to tumor volume doubling was plotted for each treatment condition using Kaplan-Meier method and (d) Comparisons between any two treatment groups was analyzed by log rank tests.
Mice were handled according to the established procedures of the University of Michigan Laboratory Animals Maintenance Manual. To generate tumor xenografts, 2×10^6 UMSCC1 cells were transplanted into the flanks of athymic nude Foxn1^nu mice (Harlan Laboratories). […]
Tumor volume doubling was determined for each xenograft by identifying the earliest day on which it was at least twice as large as on the first day of treatment. […]

EGFR = format: in vivo, mice; settings: UMSCC1 xenograft, 8 mg/kg intraperitoneally
Protocol: Delivery of the peptide to the UMSCC1 xenografts was assessed after injection of peptides (8 mg/kg, i.p.), 3 days later the tumors were removed, cryosections were immunostained for EGFR, and the internalized biotinylated peptide was visualized by Streptavidin Alexa Fluor 562 reagent.

UMSCC10B = experiment: Clonogenic cell survival assay, UMSCC10B; format: cell-based, human; settings: cell permeable peptides, H&N cancer, WT-EGFR
Protocol: as §1, §2

HSP90 = target: T1, HSP90 (Homo sapiens, UniProt P07900); experiment: Peptide binding assay (streptavidin pull-down of biotinylated peptide, HSP90 immunoblot); settings: UMSCC1 cell lysate; 10, 30 and 100 μg/ml
T1 construct: cell lysates from cancer or normal cells were prepared by 3 freeze-thaw cycles; endogenous in cells; host or cells: UMSCC1, H1975, Het1A, MRC5 (A11); UMSCC1 (A13)
Protocol: (a) To determine if the lead peptide interacts directly with tumor HSP90, cell lysates from cancer or normal cells were prepared by 3 freeze-thaw cycles and then incubated with 3 μg/ml of specific or non-specific biotin coupled peptides for 2 hours. The peptide was affinity purified using Streptavidin-agarose beads, and bound HSP90 was detected by immunoblotting for HSP90. […] (b) The effect of the treatment with specific and non-specific peptide on HSP90-EGFR interaction was determined by IP of HSP90 followed by IB with EGFR at 24 hours post treatment. […] The increased levels of HSP70 upon GA treatment indicate inhibition of HSP90 activity. (c) Specificity of the peptide treatment compared to GA was evaluated in tumor and normal cells as described in FIG. 3b, by assessing the levels of EGFR and PARP cleavage (marker of apoptotic cell death) at 72 hours post treatment, (d) cell survival was assessed using colony formation assay.
(a) UMSCC1 cell lysate was incubated with three concentrations of specific or non-specific peptide (10, 30 and 100 μg/ml) followed by immunoblotting with anti-HSP90 antibody. […] (b) The effect of EGFR specific peptide on HSP90's ability to bind with ATP was assessed. […] Bound protein was eluted in SDS-PAGE buffer, and the levels were determined by immunoblot analysis. […]

EGFR-HSP90 interaction = target: T2, EGFR-HSP90 interaction (Homo sapiens, UniProt P07900); experiment: EGFR-HSP90 interaction by immunoprecipitation and immunoblotting; format: cell-based; settings: 24-hour exposure; cancer cell lines (UMSCC1, H1975); GA 50 nM as positive control
T2 construct: endogenous in cells; host or cells: UMSCC1, H1975, Het1A, MRC5

CHO = experiment: Clonogenic cell survival assay, CHO; format: cell-based; settings: cell permeable peptides, hamster ovarian
Protocol: as §1, §2

UMSCC74B = experiment: Clonogenic cell survival assay, UMSCC74B; format: cell-based, human; settings: cell permeable peptides, H&N cancer, WT-EGFR
Protocol: as §1, §2

A549 = experiment: Clonogenic cell survival assay, A549; format: cell-based, human; settings: cell permeable peptides; A549, lung cancer, WT-EGFR
Protocol: as §1, §2

Het1A = experiment: Clonogenic cell survival assay, Het1A; format: cell-based; settings: cell permeable peptides, normal human epithelial, WT-EGFR
Protocol: as §1, §2

H3255 = experiment: Clonogenic cell survival assay, H3255; format: cell-based, human; settings: cell permeable peptides; H3255, lung cancer, L858R-EGFR
Protocol: as §1, §2

H1975 = experiment: Clonogenic cell survival assay, H1975; format: cell-based, human; settings: cell permeable peptides; H1975, lung cancer, T790M-EGFR
Protocol: as §1, §2

HeLa = experiment: Clonogenic cell survival assay, HeLa; format: cell-based, human; settings: cell permeable peptides, cervical cancer, WT-EGFR
Protocol: as §1, §2

MRC5 = experiment: Clonogenic cell survival assay, MRC5; format: cell-based; settings: cell permeable peptides; MRC5, normal human fibroblasts, WT-EGFR
Protocol: as §1, §2

Compound: COC1=C2C[C@@H](C)C[C@H](OC)[C@H](O)[C@@H](C)/C=C(\C)[C@H](OC(N)=O)[C@@H](OC)/C=C\C=C(/C)C(=O)NC(=CC1=O)C2=O [Geldanamycin, reference compound]
- histological alterations in evaluated organs (C57BL/6 mice): histological evidence of toxicity in eye and liver

Compound: SVDNPHVC [Peptide 2]
- complete blood counts and liver cytosolic enzymes (AST, ALT) (C57BL/6 mice): not significantly different from controls
- histological alterations in evaluated organs (C57BL/6 mice): no histological alterations

Compound: DEAYVMASVDNPHVCRLLGIC [Peptide 5]
- Survival Fraction (UMSCC1 cells; clonogenic survival of UMSCC1 cells, synthetic peptides delivered using Chariot): 1 ± 0.14

Compound: CC(C)[C@H](NC(=O)[C@H](Cc1c[nH]cn1)NC(=O)[C@@H]1CCCN1C(=O)[C@H](CC(N)=O)NC(=O)[C@H](CC(=O)O)NC(=O)[C@@H](NC(=O)[C@H](CO)NC(=O)[C@H](CCCNC(=N)N)NC(=O)[C@H](CCCNC(=N)N)NC(=O)[C@H](CCCNC(=N)N)NC(=O)[C@H](CCC(N)=O)NC(=O)[C@H](CCCNC(=N)N)NC(=O)[C@H](CCCNC(=N)N)NC(=O)[C@H](CCCCN)NC(=O)[C@H](CCCCN)NC(=O)[C@H](CCCNC(=N)N)NC(=O)CNC(=O)[C@H](Cc1ccc(O)cc1)NC(=O)CCCC[C@@H]1SC[C@@H]2NC(=O)N[C@@H]21)C(C)C)C(=O)N[C@@H](CS)C(=O)O [Specific Peptide] (Biotin-YGRKKRRQRRRSVDNPHVC-OH; N-terminus and C-terminus assumed)
- time post injection peptide remained detectable in xenografts (UMSCC1 xenografts [1]): 72 h
- systemic toxicity (UMSCC1 xenografts [2]; UMSCC1 xenograft mice): No systemic toxicity

Compound: Biotin-YGRKKRRORRR-NHVPSDVC [Non Specific Peptide]
- clonogenic survival (surviving fraction) (UMSCC1 cells): 1.62 ± 0.04
- HSP90 levels in tumor or adjacent skin tissue (immunostaining) (EGFR): not affected
- clonogenic survival (surviving fraction) (UMSCC10B): 0.98 ± 0.04
- binding of peptide with HSP90 versus peptide concentration (HSP90): minimal interaction
- EGFR-HSP90 interaction (EGFR-HSP90 interaction): no effect
- clonogenic survival (surviving fraction) (CHO): 1.12 ± 0.14
- clonogenic survival (surviving fraction) (UMSCC74B): 0.88 ± 0.10
- clonogenic survival (surviving fraction) (A549): 0.81 ± 0.09
- clonogenic survival (surviving fraction) (Het1A): 0.91 ± 0.11
- clonogenic survival (surviving fraction) (H3255): 1.0 ± 0.07
- clonogenic survival (surviving fraction) (H1975): 0.77 ± 0.17
- clonogenic survival (surviving fraction) (HeLa): 0.92 ± 0.08
- clonogenic survival (surviving fraction) (MRC5): 1.04 ± 0.05
- median tumor doubling time (UMSCC1 xenografts [2]; UMSCC1 xenografts, single dose): 5.5 days

Compound: NHVPSDVC [Peptide 8]
- complete blood counts and liver cytosolic enzymes (AST, ALT) (C57BL/6 mice): not significantly different from controls
- histological alterations in evaluated organs (C57BL/6 mice): no histological alterations

— patent US9029502B2, “Inhibitors of the epidermal growth factor receptor-heat shock protein 90 binding interaction” (priority 2010, dated 2015)
